Test [1] has as its system H460a, A549 parental, A549 control, A549 IL6, A549 IL8 and 1:1 mixture xenograft models. Nature of the test: Taxol positive drug control across the xenograft models of Example 5. Type of test: in vivo, human. The settings on record: 30 mg/kg, all xenograft models of FIG. 5. The source says: (§1) Cells from the aforementioned four groups and parental A549 and H460a cells were used to make xenograft models using the procedure described in Example 1. […]
For orientation: In xenograft studies the graft and the host belong to different species.

Test [2] has as its system LOX (melanoma) xenograft. Kind of test: in vivo activity in LOX xenograft model. Further details: species or system human. The settings on record: LOX xenograft in nude mice; 10 mg/kg once daily for 11 days. How it is done: (§2) The human cancer cell lines U87MG and LOX were purchased from the American Type Culture Collection. Xenografts were implanted in female nu/nu (nude) mice obtained from Charles River Laboratories (Wilmington, Mass.) (10 mice/group) when they were approximately 8 to 14 weeks old and weighed approximately 23 to 25 grams. All animal experiments were performed in accordance with protocols approved by the Roche Animal Care and Use Committee (RACUC). For xenograft implantation, cells were harvested using 0.05% trypsin, washed and centrifuged in culture medium, and resuspended in either a 1:1 mixture of phosphate buffered saline (PBS) and Matrigel (U87MG) or PBS alone (LOX) at a concentration of 1.5-5×10^7 cells per mL. A volume of 0.2 mL cell suspension (5×10^6 cells for U87MG, 2×10^6 cells for LOX) per mouse was implanted subcutaneously in the right flank. Tumors were allowed to grow for 8 to 26 days post implant when mean volume reached ˜100-150 mm^3, after which animals were randomized into treatment groups: U87MG xenograft mice receiving vehicle (Klucel and Tween) once daily, U87MG xenograft mice receiving Compound I at 10 mg/kg once daily for 21 days, LOX xenograft mice receiving vehicle (Klucel and Tween) once daily, and LOX xenograft mice receiving Compound I at 10 mg/kg once daily for 11 days.

Test [3] concerns H460a (NSCLC) xenograft. Nature of the test: in vivo activity in H460a xenograft model. Further details: species or system human. How it is done: (§3) Female nu/nu (nude) mice obtained from Charles River Laboratories (Wilmington, Mass.) or female SCID-beige mice (Taconic, Germantown, N.Y.) were used (10 mice/group) when they were approximately 8 to 14 weeks old and weighed approximately 23 to 25 grams. All animal experiments were performed in accordance with protocols approved by the Roche Animal Care and Use Committee (RACUC).
(§4) The human cancer cell lines LOVO, BxPC3, HCT-116, A549, AsPC-1, MiaPaCa-2, and Calu-6 were purchased from the American Type Culture Collection. The H460a cell line was a gift from Dr. Jack Roth (M. D. Anderson Medical Center).
For xenograft implantation, cells were harvested using 0.05% trypsin, washed and centrifuged in culture medium, and resuspended in either a 1:1 mixture of phosphate buffered saline (PBS) and Matrigel (BxPC-3) or PBS alone (A549, H460a, LOVO, Calu-6, HCT-116, MiaPaca-2, and AsPC-1) at a concentration of 1.5-5×10^7 cells per mL. A volume of 0.2 mL cell suspension (7.5×10^6 cells for A549, 1×10^7 cells for H460a, 3×10^6 cells for Calu-6 and HCT116, 5×10^6 cells for BxPC3 and AsPC-1, 6×10^6 cells for MiaPaca-2, and 5×10^6 for LOVO) per mouse was implanted subcutaneously in the right flank. All xenograft models were implanted into nude mice with the exception of BxPC3, which was implanted into SCID-beige mice. Tumors were allowed to grow for 8 to 26 days post implant when mean volume reached ˜100-150 mm^3, after which animals were randomized into treatment groups.
Compound I (synthesized according to the procedure described in WO2005/023772) was formulated as a suspension in 1.0% Klucel in water with 0.2% Tween®-80 for oral (po) administration. Formulated compound and vehicle were prepared weekly and stored at 4° C. In the Calu-6 xenograft model, Compound I was dosed at 60 mg/kg daily every other week for 4 weeks (7+/7−×2 cycles). All other xenograft models were dosed with Compound I at 10 mg/kg daily.
Tumor measurements and mouse weights were taken twice per week. Statistical analysis was determined by Mann-Whitney Rank Sum Test, 1-way ANOVA, and post hoc Bonferroni t-test (SigmaStat, version 2.0, Jandel Scientific, San Francisco, Calif.). Differences between groups were considered significant when the probability value (p) was ≦0.05.
(§5) Tumor growth inhibition (TGI %) was measured 21 days following the commencement of the treatment.
as §1

The test system of test [4] is MiaPaCa-2 (pancreatic) xenograft. Kind of test: in vivo activity in MiaPaCa-2 xenograft model. The arrangement: species or system human. The settings on record: MiaPaCa-2 (pancreatic) xenograft in nude mice; 10 mg/kg daily po; 21 days following commencement of treatment. How it is done:
as §3, §4
(§6) For xenograft implantation, cells were harvested using 0.05% trypsin, washed and centrifuged in culture medium, and resuspended in either a 1:1 mixture of phosphate buffered saline (PBS) and Matrigel (BxPC-3) or PBS alone (A549, H460a, LOVO, Calu-6, HCT-116, MiaPaca-2, and AsPC-1) at a concentration of 1.5-5×10^7 cells per mL. […]
(§7) Tumor measurements and mouse weights were taken twice per week. Statistical analysis was determined by Mann-Whitney Rank Sum Test, 1-way ANOVA, and post hoc Bonferroni t-test (SigmaStat, version 2.0, Jandel Scientific, San Francisco, Calif.). […]
as §5

For test [5], the system named is 1:1 mixture of A549 overexpressing IL6 or IL8 (xenograft). Kind of test: in vivo activity in xenograft of 1:1 mixture of IL6- and IL8-overexpressing A549 cells. The arrangement: species or system human. The settings on record: Example 5; tumors from 1:1 mixture of A549 overexpressing IL6 or IL8; 10 mg/kg once daily; after 21 days.
Excerpt: (§8) IL6 and IL8 lentiviruses were made using IL6 and IL8 plasmids (available from Genecopoeia, Rockville, Md., USA), respectively. A549 cells were divided into three groups with one group receiving a vector control, one group being infected with the IL6 lentivirus and the third group being infected with the IL8 lentivirus. The later two groups formed cell pools with stable expression of exogenous IL6 and IL8, respectively.
A portion of the IL6 overexpressing A549 cells and the IL8 overexpressing A549 cells were then combined to form a fourth group containing a 1:1 mixture of such cells.
as §1

Test [6] has as its system genes associated with angiogenesis. Particulars: Luistro et al., Cancer Research 69:7672-80 (2009), cited from earlier work.
In test [7] the test system is A549 cells overexpressing IL6 (xenograft). Kind of test: in vivo activity in IL6-overexpressing A549 xenograft model. Further details: species or system human. Particulars: Example 5, 10 mg/kg once daily, after 21 days.
Excerpt: as §8, §1

In test [8] the test system is AsPC-1 (pancreatic) xenograft. Kind of test: in vivo activity in AsPC-1 xenograft model. The settings on record: AsPC-1 (pancreatic) xenograft in nude mice; 10 mg/kg daily po; 21 days following commencement of treatment. The arrangement: species or system human. The procedure: as §3, §4, §6, §7, §5
Test [9] has as its system LOVO (colon) xenograft. Nature of the test: in vivo activity in LOVO xenograft model. Further details: species or system human. Particulars: LOVO (colon) xenograft in nude mice; 10 mg/kg daily po; 21 days following commencement of treatment. How it is done: as §3, §4, §6, §7, §5
In test [10] the test system is U87MG (glioblastoma) xenograft. Kind of test: in vivo activity in U87MG xenograft model. The arrangement: species or system human. The settings on record: U87MG xenograft in nude mice; 10 mg/kg once daily for 21 days. The procedure: as §2
Test [11] has as its system Calu-6 (NSCLC) xenograft. Nature of the test: in vivo activity in Calu-6 xenograft model. Further details: species or system human. Particulars: Calu-6 (NSCLC) xenograft in nude mice; 60 mg/kg daily every other week for 4 weeks (7+/7- x 2 cycles) po; 21 days following commencement of treatment. How it is done: as §3, §4, §6, §7, §5
For test [12], the system named is A549 (NSCLC) xenograft. Nature of the test: in vivo activity in A549 xenograft model. The arrangement: species or system human. The procedure: as §3, §4, §6, §7
Tumor growth inhibition (TGI %) was measured 21 days following the commencement of the treatment. […]

In test [13] the test system is BxPC3 (pancreatic) xenograft. Kind of test: in vivo activity in BxPC3 xenograft model. Further details: species or system human. Particulars: BxPC3 (pancreatic) xenograft in SCID-beige mice; 10 mg/kg daily po; 21 days following commencement of treatment. How it is done: as §3, §4, §6, §7, §5
Test [14] deals with A549 vector control tumors. Nature of the test: in vivo activity in A549 vector control xenograft model. Further details: species or system human. The settings on record: Example 5, 10 mg/kg once daily, after 21 days.
Excerpt: as §8, §1

The subject of test [15] is A549 cells overexpressing IL8 (xenograft). Nature of the test: in vivo activity in IL8-overexpressing A549 xenograft model. Further details: species or system human. The settings on record: Example 5, 10 mg/kg once daily, after 21 days.
Excerpt: as §8, §1

The test system of test [16] is HCT-116 (colon) xenograft. Kind of test: in vivo activity in HCT-116 xenograft model. Particulars: HCT-116 (colon) xenograft in nude mice; 10 mg/kg daily po; 21 days following commencement of treatment. Further details: species or system human. The procedure:
as §3, §4, §6, §7, §5

The test system of test [17] is IL8-knockdown H460a xenograft. Kind of test: in vivo activity in IL8-knockdown H460a xenograft model. The arrangement: species or system human. Particulars: Example 6; IL8-knockdown H460a tumors; 10 mg/kg once daily for 21 days. An excerpt: Lentiviruses were made using pLKO.1-based anti-IL8 shRNA (purchased from Open Biosystems) and used to stably knockdown IL8 expression in H460a cells. […] IL8-knockdown H460a cells, however, still had more than 2-fold higher IL8 levels compared to A549 cells.
Parental H460a cells and IL8-knockdown H460a cells were then implanted as xenografts in mice using the procedures described in Example 1. The mice were then randomized into different treatment groups (10 mice/group): H460a xenograft mice receiving vehicle once daily, H460a xenograft mice receiving Compound I at 10 mg/kg once daily, IL8-knockdown H460a xenograft mice receiving vehicle once daily, and IL8-knockdown H460a xenograft mice receiving Compound I at 10 mg/kg once daily.

Test [18] concerns Hes1 mRNA. Kind of test: downregulation of Hes1 mRNA following in vitro treatment (Notch signaling blockage). It counts as cell-based, human. An excerpt:
Expression of IL6 and IL8 was then quantified in the BxPC3, HCT-116, A549, AsPC-1, MiaPaCa-2, and Calu-6 cell lines by measuring the level of mRNA using qRT-PCR. RNA isolation, and reverse transcription-PCR (RT-PCR) were done using standard laboratory techniques. The catalogue numbers for each probe set were Hes1 (Hs00172878_ml), ACTB (4333762F), IL6 (Hs00174131_ml), IL8 (Hs00174103_ml) and 18S (4319413E).

We go through two compounds from patent publication US8309299B2, “Combination therapy and method for assessing resistance to treatment” (Hoffmann-La Roche Inc., priority 2010, dated 2012).

Take `CC(=O)O[C@H]1C(=O)[C@@]2(C)[C@H]([C@H](OC(=O)c3ccccc3)[C@]3(O)C[C@H](OC(=O)[C@H](O)[C@@H](NC(=O)c4ccccc4)c4ccccc4)C(C)=C1C3(C)C)[C@]1(OC(C)=O)CO[C@@H]1C[C@@H]2O` [Taxol®]: the “TGI (positive drug control)” value in [1] is recorded as “consistent TGI across the various models”.

Turning to `CC(C)(C(=O)NCC(F)(F)C(F)(F)F)C(=O)N[C@@H]1C(=O)Nc2ccccc2-c2ccccc21` [Compound I, 2,2-dimethyl-N-((S)-6-oxo-6,7-dihydro-5H-dibenzo[b,d]azepin-7-yl)-N′-(2,2,3,3,3-pentafluoro-propyl)-malonamide], the TGI in test [2] was 15%; in [3] (Example 5, H460a xenograft (high IL6 and IL8), 10 mg/kg once daily, after 21 days) it was 9%; in test [3] (Example 6, parental H460a tumors, 10 mg/kg once daily for 21 days), 5%; in test [3] (Example 7, H460a xenograft, Compound I 10 mg/kg once daily, anti-IL8 antibody 20 mg/kg twice weekly), 10%; in test [3] (Example 8, H460a xenograft, Compound I 10 mg/kg once daily, anti-IL6 antibody 20 mg/kg twice weekly), 43%; in test [5], 8%. Also, the TGI in test [7] was 32%; in [10] it was −17%; in [12] (Example 5, parental A549 tumors, 10 mg/kg once daily, after 21 days), 71%; in test [14], 61%; in [15] it was 45%; in [17], 24%. The TGI % in [3] (H460a (NSCLC) xenograft in nude mice, 10 mg/kg daily po, 21 days following commencement of treatment (Example 1)) came to 8%; in test [4], 53%; in [8], 58%; in test [9], 83%; in [11] it was 42%; in [12] (A549 (NSCLC) xenograft in nude mice, 10 mg/kg daily po, 21 days following commencement of treatment), 70%. Also, the TGI % worked out at 82% in test [13] and 76% in [16]. Also, the “change in the angiogenic gene profile” value in test [6] (H460a xenograft) is reported as “little change”. Also, the “expression of genes associated with angiogenesis” value in test [6] (treated xenografts) is “reduced expression”. Moreover, the “downregulation of Hes1 mRNA” value in test [18] (A549 overexpressing IL6), in [18] (A549 overexpressing IL8), in test [18] (LOX cells) and in test [18] (U87MG cells) was “properly maintained” each time.
